Data on three compounds can be found in article PMC11375794, “Discovery of new Hsp90–Cdc37 protein–protein interaction inhibitors: in silico screening and optimization of anticancer activity” (RSC Advances, 2024).

By inhibition is commonly meant the change of the read-out against control, counted positive when it falls. As a reminder, the IC50 is the concentration that gives 50% inhibition. One may read the Kd as a measure of binding affinity in units of concentration.

Data set [1] has as its system MCF-7 breast cancer cell line. As to the kind of experiment: MTS cell viability (antiproliferative) assay in MCF-7. The settings on record: Homo sapiens; for IC50: MTS assay, 72 hours, mean ± SD. In kind it is cell-based. On the procedure: (§1) Hormone-positive breast cancer cell line MCF-7 (ATCC-HTB-22; ATCC) was grown in Dulbecco's Modified Eagle's Medium (DMEM), while Ewing sarcoma cell line SK-N-MC (a kind gift from Beat Schäfer) and THP-1 (ATCC-TIB-202; ATCC) cells were grown in Roswell Park Memorial Institute (RPMI) 1640. The medium was supplemented with 10% heat-inactivated fetal bovine serum (Gibco, Thermo Fisher Scientific, Waltham, MA, USA), 100 U per mL penicillin, 100 μg per mL streptomycin, and 2 mM L-glutamine (all from Sigma-Aldrich, St. Louis, MO, USA). All cell lines were incubated at 37 °C in a 5% CO2 atmosphere.
(§2) The antiproliferative activity of the compounds was evaluated against MCF-7 (ATCC-HTB-22; ATCC), SK-N-MC (a kind gift from Beat Schäfer) and THP-1 (ATCC-TIB-202; ATCC) cancer cell lines using the MTS assay (Promega, Madison, WI, USA). Cells were seeded in 96-well plates at a density of 2 × 10^4 cells per mL in 100 μL of growth medium for THP-1 and were treated with compounds and controls directly, while 3 × 10^3 cells per mL for MCF-7 and SK-N-MC were seeded in 100 μL of growth medium and allowed to adhere overnight following the treatment. In all cases the cells were treated with respective newly prepared compounds, positive controls (17-DMAG for MCF-7 and SK-N-MC; PU-H71 for THP-1) and a vehicle control (0.5% DMSO). The incubation time after treatment was 72 hours, then CellTiter96® Aqueous One Solution Reagent (Promega, Madison, WI, USA) was added to each well. Following a 3 hours incubation, absorbance was measured at 492 nm using BioTek's Synergy™ 4 Hybrid Microplate Reader (Winooski, VT, USA). The measurements were performed in two biological repetitions and each time the experiment was performed in a triplicate. The IC50 values, representing the concentration of inhibitor required for half-maximal inhibition, are the average of three independent experiments and were calculated using GraphPad Prism 9.5.0 software (San Diego, CA, USA).

The test system of data set [2] is Ewing sarcoma cell line SK-N-MC. Nature of the data set: MTS cell viability (antiproliferative) assay in SK-N-MC. In kind it is cell-based. The settings on record: 72 hours, mean ± SD; for IC50: Homo sapiens, SK-N-MC. On the procedure: as §1, §2
In data set [3] the test system is leukemia cell line THP-1. Nature of the data set: MTS cell viability (antiproliferative) assay in THP-1. In kind it is cell-based. The settings on record: Homo sapiens, THP-1, 72 hours, mean ± SD. The procedure:
as §1, §2

In data set [4] the test system is Hsp90 client protein levels (Cdk4, Akt, c-Raf, ERα, IGF1R) and Hsp70, Hsp90 in MCF-7 cells. Nature of the data set: Western blot of Hsp90 client proteins and heat shock proteins. In kind it is cell-based. The note with it: MCF-7, 20 μM, 24 hours. On the procedure: MCF-7 cells were treated with compounds 8c (20 μM and 50 μM), 13g (20 μM and 50 μM) and DDO-5936 (20 μM) or 0.5% DMSO as a negative control. The cells were incubated with the compounds or negative control for 24 hours. After incubation, the cells were rinsed with PBS (Gibco, Thermo Fisher Scientific, Waltham, MA, USA) and lysed using RIPA buffer containing 50 mM Tris–HCl pH 7.4, 150 mM NaCl, 1% NP-40, 0.5% sodium deoxycholate, and 1 mM EDTA. The RIPA buffer was further supplemented with Halt™ Protease Inhibitor Cocktail and Halt™ Phosphatase Inhibitor Cocktail (both from Thermo Fisher Scientific, Waltham, MA, USA) at a 1 : 100 dilution. The lysates were then frozen for at least 24 hours. Upon thawing, the lysates were sonicated and centrifuged at 15 000 rpm for 20 minutes at 4 °C. Only the supernatants were collected, and protein concentration was measured using the DC protein assay (Bio-Rad, Hercules, California, USA). Proteins (20 μg) were separated by SDS-PAGE on a 10% acrylamide/bisacrylamide gel, running at 80 V for 15 minutes followed by 130 V for 60 minutes. The separated proteins were then transferred onto a nitrocellulose membrane using the iBlot 2 Dry Blotting System (Thermo Fisher Scientific, Waltham, MA, USA). The membranes were blocked with 5% BSA for 1 hour at room temperature to prevent nonspecific binding. Primary antibodies were then added, and the membranes were incubated overnight at 4 °C. The primary antibodies (Cell Signaling, Danvers, MA, USA) used included anti-β-ActinMouse mAb (1 : 5000), anti-Hsp90 Rabbit mAb (1 : 1000), anti-Hsp70 Mouse mAb (1 : 1000), anti-IGF1R Rabbit (1 : 1000), anti-CDK4 Rabbit (1 : 1000), anti-ERα Mouse mAb (1 : 1000), anti-Akt Rabbit mAb (1 : 1000), and anti-c-Raf Rabbit mAb (1 : 1000). Secondary antibodies included anti-rabbit IgG, HRP-linked antibody (1 : 10 000), and anti-mouse IgG, HRP-linked antibody (1 : 10 000), which were incubated with the membranes for 1 hour at room temperature. Following washes, SuperSignal™ West Femto Maximum Sensitivity Substrate (Thermo Fisher Scientific, Waltham, MA, USA) was applied. Visualization of the blots was performed using the UVITEC Cambridge Imaging System (UVITEC, Cambridge, UK), and densitometric analysis of the western blot bands was conducted using NineAlliance software. Relative protein densities were calculated in relation to β-actin, used as a loading control.
Background: A western blot detects proteins with antibodies after separation by electrophoresis.

Data set [5] deals with wild-type Hsp90. Further details: method as in PMID 31555737. The note with it: cited from earlier work.
Data set [6] has as its target Asp47Ala mutant of Hsp90. Further details: method as in PMID 31555737. The settings on record: cited from earlier work.
Data set [7] deals with T1, full-length Hsp90β (Homo sapiens, UniProt P08238).
T1 construct: For the protein expression of full-length Hsp90β, we received plasmids as a kind gift; made in house; host or cells: Escherichia coli strain Rosetta
T1 sequence (P08238 whole entry): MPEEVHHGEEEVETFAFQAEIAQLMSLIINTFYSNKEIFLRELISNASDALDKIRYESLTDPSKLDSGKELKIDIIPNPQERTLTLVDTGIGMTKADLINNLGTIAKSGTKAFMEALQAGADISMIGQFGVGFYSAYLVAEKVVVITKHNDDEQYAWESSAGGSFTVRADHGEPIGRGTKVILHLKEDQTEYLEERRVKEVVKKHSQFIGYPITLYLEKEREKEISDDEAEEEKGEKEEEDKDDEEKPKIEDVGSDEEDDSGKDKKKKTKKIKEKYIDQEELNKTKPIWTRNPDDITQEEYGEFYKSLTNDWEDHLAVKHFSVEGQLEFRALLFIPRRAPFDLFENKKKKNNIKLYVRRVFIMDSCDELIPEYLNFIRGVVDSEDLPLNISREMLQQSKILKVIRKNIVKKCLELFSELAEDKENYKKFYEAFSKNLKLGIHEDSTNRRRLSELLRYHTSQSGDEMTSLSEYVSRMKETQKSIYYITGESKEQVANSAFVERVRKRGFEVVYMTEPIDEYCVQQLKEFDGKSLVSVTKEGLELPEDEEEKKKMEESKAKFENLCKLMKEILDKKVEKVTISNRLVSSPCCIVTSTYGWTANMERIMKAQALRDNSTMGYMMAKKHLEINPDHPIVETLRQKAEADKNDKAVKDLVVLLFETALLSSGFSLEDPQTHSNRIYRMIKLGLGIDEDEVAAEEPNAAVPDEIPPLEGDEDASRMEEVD
Nature of the data set: Microscale thermophoresis (MST) binding to Hsp90β. On the procedure: For the protein expression of full-length Hsp90β, we received plasmids as a kind gift from Dr Asta Zubriené at the Institute of Biotechnology, Vilnius University, Lithuania. Hsp90β, tagged with N-terminal 6×His-tag, was expressed in Escherichia coli strain Rosetta. The cells were cultured in LB media supplemented with kanamycin (50 μg mL^−1) and chloramphenicol (34 μg mL^−1) at 37 °C, and protein expression was initiated with 0.5 mM isopropyl β-D-1-thiogalactopyranoside (IPTG) when the OD600 reached 0.8. Following induction, the cells were incubated for 16 hours at 18 °C before being harvested by centrifugation. The cells were resuspended in a lysis buffer containing 40 mM potassium phosphate pH 8.0, 400 mM KCl, 10 mM imidazole, and protease inhibitors (Sigma), and then lysed by sonication. After centrifugation, the proteins were initially purified using a Ni^2+-affinity HisTrap column (GE Healthcare). Impurities were washed away with lysis buffer containing 20–40 mM imidazole, and Hsp90β was subsequently eluted with lysis buffer containing 300 mM imidazole. The purification process continued with size exclusion chromatography (SEC) using a Superdex-200 (16/600) column (GE Healthcare) and a running buffer of 50 mM Tris pH 7.5 at room temperature, 300 mM KCl. The purity of the fractions was confirmed by SDS-PAGE, and they were then concentrated. For the NMR experiments, Hsp90β was dialyzed against NMR buffer (50 mM potassium phosphate pD 7.5, 100 mM KCl, 2 mM DTT (98%, D10) in D2O) and subsequently frozen in liquid nitrogen.
(§3) The full-length Hsp90β was labeled using the Monolith His-Tag Labeling Kit RED-tris-NTA following the manufacturer's instructions (NanoTemper Technologies GmbH, Munich, Germany). The proteins were first diluted to a concentration of 8 nM in assay buffer (50 mM Tris–HCl, pH 7.4, containing 150 mM NaCl, 5% ethanol, and 10 mM MgCl2). To determine the Kd values, the proteins were mixed with the test compounds in a 1 : 1 ratio as stated in the manufacturers protocol. The final concentration of Hsp90β was 4 nM, with compounds added in the following ranges: 1000 μM to 5.86 μM for 8c; 312.5 μM to 0.15 μM for 13g and 125 μM to 3.91 μM for 1. Two independent Kd determinations were performed for compounds 8c and 13g. […] Next, Cdc37 (AR09008PUN, OriGene Technologies, Inc., Rockville, MD, USA) was acquired for the purpose of PPI inhibition evaluation between full-length Hsp90β and Cdc37. […] In all experiments the compounds were incubated with the proteins for 15 minutes in the dark at room temperature. The mixtures were then loaded into Monolith NT.115 Premium Capillaries (NanoTemper Technologies GmbH, Munich, Germany). Thermophoresis was induced at 1475 ± 15 nm and measured using a Monolith NT.115 pico instrument (NanoTemper Technologies GmbH, Munich, Germany). Measurements were conducted at ambient temperature (24–25 °C), with excitation power set to 20% and MST power set to 40%, and a laser on time of 5 seconds. To calculate the Kd values, the average fluorescence responses for each concentration were plotted against the logarithm of compound concentrate on using GraphPad Prism software (GraphPad Software, Inc., La Jolla, CA).
For orientation: In MST a laser heats a spot of the sample, and binding alters the fluorescence response.

Data set [8] is described as follows: Solubility as observed in MST. In kind it is physicochemical. The settings on record: MST assay buffer. The procedure: as §3, with “The mixtures were then loaded into Monolith NT.115 Premium Capillaries (NanoTemper Technologies GmbH, Munich, Germany).” left out, “Measurements were conducted at ambient temperature (24–25 °C), with excitation power set to 20% and MST power set to 40%, and a laser on time of 5 seconds.” left out

Take `Cc1cc(C)c(S(=O)(=O)N(CC(=O)O)c2ccc(Nc3ccnc(N4CCCC4)n3)cc2)c(C)c1` [DDO-5936, reference compound]: the inhibition at 50 µM in data set [1] (MCF7, MCF-7, at 50 μM, read-out: growth inhibition) came out at 17%. Moreover, the IC50 in data set [1] (MCF7), in data set [2] and in data set [3] was over 50 µM throughout. Besides, the ERα level entry in data set [4] is recorded as “downregulated”. Besides, the dissociation constant Kd in data set [5] is 3.86 µM; in data set [6], over 100 µM.

On to `Cc1nc(Nc2nc(C(=O)N(C)CCOc3ccccc3)cs2)cc(C2CCCN(CC#N)C2)n1` (stereo not drawn) [Compound 1], for which the half-maximal inhibitory concentration (IC50) in data set [1] (MCF7, 72 h) was 29.5 ± 5.4 µM; in data set [2] it was 25 ± 0.4 µM; in data set [3], over 50 µM. In addition, in data set [7], the “concentrations at which an increase in binding could be detected” value is “above 39 μM”. Further, the “highest concentration without compound-induced protein aggregation” value in data set [7] is 125 µM. Moreover, the “binding to Hsp90β (qualitative)” value in data set [7] (125 μM to 3.91 μM) is listed as “confirmed qualitatively”. The solubility result in data set [8] is on record as “poor”.

As for `O=C(NCCOc1ccccc1)c1ccc(Nc2cc(N3CCCC3)ncn2)cc1` [Compound 11g, N-(2-Phenoxyethyl)-4-((6-(pyrrolidin-1-yl)pyrimidin-4-yl)amino)benzamide], the concentration for half-maximal inhibition (IC50) was over 50 µM in data set [1] (MCF7, 72 h); over 50 µM in data set [2]; over 50 µM in data set [3]. Also, the “SK-N-MC IC50” value in data set [2] was “inactive”.
